The record followed here is article PMC10373420, “A high-throughput screening system for SARS-CoV-2 entry inhibition, syncytia formation and cell toxicity” (Biological Procedures Online, 2023).

“Also recorded” adds a separate entry of the source. Where a name gives a salt, the structure may show the parent alone. Read-outs that look alike come from different tables or passages of the source. Numbered stars: 1 amine (or outer) side, 2 acyl side, 3 side chain; on linkers, the order of the positions; unused ones are H or OH. Bridge positions count the residues as written; N and C are the ends. Square brackets hold non-standard residues; d marks the D form. Peptide text beside a SMILES is read from it. I, II: the chains in the order shown. Actinocin(9to1) = Cc1c2oc3c(C)ccc(C(=O)[*:1])c3nc-2c(C(=O)[*:2])c(N)c1=O; NMeV = CN[C@H](C(=O)O)C(C)C; Sar = CNCC(=O)O

Series [1] has as its system VSV-eGFP-SARS-CoV-2. The experiment in a line: microbe, parasite or virus in culture. It counts as cell-based. The note with it: for inhibition at 1 µM: read-out: inhibition of VSV-eGFP-SARS-CoV-2 infection, 1 μM; for inhibition at 5 µM: read-out: inhibition of VSV-eGFP-SARS-CoV-2 infection, 5 μM; for inhibition at 10 µM: read-out: inhibition of VSV-eGFP-SARS-CoV-2 infection, 10 μM; for IC50: read-out: IC50 against VSV-eGFP-SARS-CoV-2 infection.

For series [2], the system named is ACE2-Spike dependent syncytia formation. It counts as cell-based, human. The note with it: IC50 concentration; for initiation of pseudoviral infection: control 7 hpi; for initiation of syncytia formation: imaging up to 24 hpi, control 12 hpi.
The test system of series [3] is rVSV-G-GFP. It counts as cell-based, vesicular stomatitis virus (VSV).
Series [4] concerns VSV-eGFP-SARS-CoV-2. The format is cell-based. The note with it: 1 μM.
The test system of series [5] is SiHa ACE2 Cerulean H2B mCherry cells.
Setting [6] is: Severe acute respiratory syndrome coronavirus 2, SiHa.

For orientation: inhibition means the drop in the measured response relative to a control, in per cent. A word on the IC50: it is the point on the concentration scale where inhibition reaches its midpoint.

For `C[C@H](N)C(=O)N[C@@H]1[C@H]2C(=C(O)C[C@@H](O)[C@@H]2O)C(=O)O[C@]1(C)C(Cl)Cl` [Bactobolin], in series [1] (setting [6]), the inhibition at 1 µM was 56%, the inhibition at 5 µM worked out at 99% and the inhibition at 10 µM stood at 100%.
As for `COc1cccc2c1C(=O)c1c(O)c3c(c(O)c1C2=O)C[C@@](O)(C(C)=O)C[C@@H]3O[C@H]1C[C@H](N)[C@H](O)[C@H](C)O1` [Daunorubicin hydrochloride, reference compound], in series [1] (setting [6]), the inhibition at 1 µM is -16%, the inhibition at 5 µM came out at 40% and the inhibition at 10 µM amounted to 41%.
Casirivimab: in series [1], the “inhibition of VSV-eGFP-SARS-CoV-2 infection (in words)” value is on record as “inhibition of VSV-eGFP-SARS-CoV-2 infection” and the IC50 is 0.045 nM.
On to `CC(=O)O[C@H]1C[C@H](O[C@H]2[C@@H](O)C[C@H](O[C@H]3[C@@H](O)C[C@H](OC4CC[C@@]5(C)[C@H](CC[C@@H]6[C@@H]5CC[C@]5(C)[C@@H](C7=CC(=O)OC7)CC[C@]65O)C4)O[C@@H]3C)O[C@@H]2C)O[C@H](C)[C@H]1O[C@@H]1O[C@H](CO)[C@@H](O)[C@H](O)[C@H]1O` (some centres unmarked) [Lanatoside A], for which, in series [1] (setting [6]), the inhibition at 1 µM is 81%, the inhibition at 5 µM was determined as 97% and the inhibition at 10 µM was found to be 98%.
As to `Cc1c2oc3c(C)ccc(C(=O)N[C@@H]4C(=O)N[C@H](C(C)C)C(=O)N5CCC[C@H]5C(=O)N(C)CC(=O)N(C)[C@@H](C(C)C)C(=O)O[C@@H]4C)c3nc-2c(C(=O)N[C@@H]2C(=O)N[C@H](C(C)C)C(=O)N3CCC[C@H]3C(=O)N(C)CC(=O)N(C)[C@@H](C(C)C)C(=O)O[C@@H]2C)c(N)c1=O` [Dactinomycin, reference compound] (I: T[dV]P[Sar][NMeV] / II: T[dV]P[Sar][NMeV]; ester I:1-I:C, II:1-II:C; linker I:N-II:N via Actinocin(9to1)), in series [1] (setting [6]), the inhibition at 1 µM came to 39%, the inhibition at 5 µM stood at 56% and the inhibition at 10 µM turned out to be 58%.
Regarding `COc1ccc(/C=C/C(=O)c2ccccc2)cc1` [4-Methoxychalcone, reference compound], in series [1] (setting [6]), the inhibition at 1 µM is -11%, the inhibition at 5 µM was -7% and the inhibition at 10 µM was determined as 26%.
As to `CCCCCC1=C/C(=C/c2[nH]c(-c3ccc[nH]3)cc2OC)N=C1C` [Prodigiosin], in series [1] (setting [6]), the inhibition at 1 µM is 86%, the inhibition at 5 µM was determined as 98% and the inhibition at 10 µM was 100%.
Consider `CSC[S@+]([O-])C[C@H](CO)NC(=O)/C=C/c1c(C)[nH]c(=O)[nH]c1=O` [Sparsomycin], for which, in series [1] (setting [6]), the inhibition at 1 µM is -2%, the inhibition at 5 µM was found to be 80% and the inhibition at 10 µM stood at 94%.
On to `CO[C@H]1/C=C\C=C(/C)C(=O)NC2=CC(=O)C(N)=C(C[C@@H](C)C[C@H](OC)[C@H](O)[C@@H](C)/C=C(\C)[C@@H]1OC(N)=O)C2=O` [17-Aminodemethoxygeldanamycin], for which, in series [2], the “initiation of pseudoviral infection” value is on record as 8 hpi and the “initiation of syncytia formation” value is 12 hpi. Also, the “rVSV-G-GFP infection inhibition (in words)” value in series [3] is reported as “moderate inhibition”. Moreover, in series [4], the “inhibition of VSV-eGFP-SARS-CoV-2 infection after pre-treatment of cells” value turned out to be 50% and the “inhibitory activity after preincubation of cells with natural product (in words)” value was “having inhibitory activity; also recorded: moderate level of viral entry inhibition”. Further, the half-maximal inhibitory concentration (IC50) in series [1] was found to be 560 nM.
Turning to `CC[C@H](C)[C@H]1NC(=O)[C@@H](NC(=O)[C@@H](CC(C)C)N(C)C(=O)[C@@H]2CCCN2C(=O)C(C)O)[C@@H](C)OC(=O)[C@H](Cc2ccc(OC)cc2)N(C)C(=O)[C@@H]2CCCN2C(=O)[C@H](CC(C)C)NC(=O)[C@@H](C)C(=O)[C@H](C(C)C)OC(=O)C[C@@H]1O` (some centres unmarked) [Didemnin B], in series [2], the “initiation of pseudoviral infection” value is reported as 8 hpi and the “initiation of syncytia formation” value was “no syncytia was observed”. Moreover, in series [2] (listed as Didemin B), the “initiation of syncytia formation” value is on record as “inhibits syncytia formation”. The “rVSV-G-GFP infection inhibition (in words)” value in series [3] is listed as “could inhibit the VSVG infection; also recorded: rVSV-G-GFP inhibition”. Also, the “inhibitory activity after preincubation of cells with natural product (in words)” value in series [4] is listed as “having inhibitory activity; also recorded: could inhibit viral infection”. Moreover, in series [5], the “cellular toxicity (H2B mCherry nuclear condensation)” value is “exhibited toxicity at higher doses” and the “toxicity at IC50 dose” value is “minimum toxicity”. In series [1] (setting [6]), the IC50 was determined as 190 nM, the inhibition at 5 µM stood at 100% and the inhibition at 10 µM turned out to be 100%.
Consider `CC[C@]1(O)C[C@H]2CN(CCc3c([nH]c4ccccc34)[C@@](C(=O)OC)(c3cc4c(cc3OC)N(C=O)[C@H]3[C@@](O)(C(=O)OC)[C@H](OC(C)=O)[C@]5(CC)C=CCN6CC[C@]43[C@@H]65)C2)C1` [Vincristine sulfate, reference compound], for which, in series [1] (setting [6]), the inhibition at 1 µM was 32%, the inhibition at 5 µM stood at 38% and the inhibition at 10 µM is 39%.
Take `CC1=C2C(=CC(C)(C)[C@@H]2O)C(=O)[C@](C)(O)C12CC2` [Illudin M]: in series [1] (setting [6]), the inhibition at 1 µM stood at 31%, the inhibition at 5 µM amounted to 54% and the inhibition at 10 µM was 73%.
In the case of `CC[C@](C)(O)C(=O)O[C@H]1C(=O)O[C@@H]2C[C@H]3C(C)=C[C@H](O)[C@@H](O)[C@]3(C)[C@H]3[C@]4(O)OC[C@]32[C@@H]1[C@@H](C)[C@H]4O` [Glaucarubin], in series [1] (setting [6]), the inhibition at 1 µM is -7%, the inhibition at 5 µM was -1% and the inhibition at 10 µM is 33%.
The like results for `C[C@H]1CCC/C=C/[C@@H]2C[C@H](O)C[C@H]2[C@H](O)/C=C/C(=O)O1` [Brefeldin A] were, in that order, 66%, 82% and 86%.
Consider `COC1=C(N)C(=O)c2nc(-c3nc(C(=O)O)c(C)c(-c4ccc(OC)c(OC)c4O)c3N)ccc2C1=O` [Streptonigrin], for which, in series [2], the “initiation of pseudoviral infection” value was determined as 8 hpi and the “initiation of syncytia formation” value was determined as 12 hpi. The “rVSV-G-GFP infection inhibition (in words)” value in series [3] was “could inhibit the VSVG infection; also recorded: rVSV-G-GFP inhibition”. The “toxicity at IC50 dose” value in series [5] was “minimum toxicity”. Besides, in series [1] (setting [6]), the IC50 amounted to 380 nM, the inhibition at 5 µM stood at 100% and the inhibition at 10 µM is 100%.
For the compound `C[C@@H]1O[C@@H](O[C@@H]2C=C3CC[C@@H]4[C@H](CC[C@]5(C)[C@@H](c6ccc(=O)oc6)CC[C@]45O)[C@@]3(C)CC2)[C@H](O)[C@H](O)[C@H]1O[C@@H]1O[C@H](CO)[C@@H](O)[C@H](O)[C@H]1O` [Scillaren A], in series [2], the “initiation of pseudoviral infection” value is 8 hpi and the “initiation of syncytia formation” value is on record as 22 hpi. For the same compound, the “rVSV-G-GFP infection inhibition (in words)” value in series [3] is listed as “moderate level of inhibition”. Besides, the concentration for half-maximal inhibition (IC50) in series [1] turned out to be 410 nM.
For the compound `CC(=O)O[C@@]1(C)C[C@@H]([C@H](O)CC2CC(=O)NC(=O)C2)C(=O)[C@@H](C)C1` [Acetoxycycloheximide], in series [2], the “initiation of pseudoviral infection” value was determined as 10 hpi and the “initiation of syncytia formation” value came out at 21 hpi. For the same compound, in series [3], the “rVSV-G-GFP infection inhibition (in words)” value is “moderate level of inhibition”. In addition, in series [1] (setting [6]), the IC50 was determined as 640 nM, the inhibition at 5 µM is 100% and the inhibition at 10 µM was found to be 100%.
With `C[C@@H]1O[C@@H](O[C@@H]2C=C3CC[C@@H]4[C@H](CC[C@]5(C)[C@@H](c6ccc(=O)oc6)CC[C@]45O)[C@@]3(C)CC2)[C@H](O)[C@H](O)[C@H]1O` [Proscillaridin, reference compound], in series [2], the “initiation of pseudoviral infection” value came out at 8 hpi and the “initiation of syncytia formation” value came out at 16 hpi. In addition, in series [3], the “rVSV-G-GFP infection inhibition (in words)” value is given as “moderate inhibition”. Moreover, in series [1] (setting [6]), the half-inhibitory concentration (IC50) was found to be 220 nM, the inhibition at 5 µM came to 98% and the inhibition at 10 µM is 99%.
In the case of `CC(=O)O[C@H]1C[C@H](O[C@H]2[C@@H](O)C[C@H](O[C@H]3[C@@H](O)C[C@H](O[C@H]4CC[C@@]5(C)[C@H](CC[C@@H]6[C@@H]5C[C@@H](O)[C@]5(C)[C@@H](C7=CC(=O)OC7)CC[C@]65O)C4)O[C@@H]3C)O[C@@H]2C)O[C@H](C)[C@H]1O[C@@H]1O[C@H](CO)[C@@H](O)[C@H](O)[C@H]1O` [Allocor], in series [1] (setting [6]), the inhibition at 1 µM was determined as 49%, the inhibition at 5 µM is 89% and the inhibition at 10 µM was determined as 92%.
